Test results published in ChEMBL document CHEMBL1914455, “A dual fluorinated and iodinated radiotracer for PET and SPECT imaging of β-amyloid plaques in the brain” (Bioorg Med Chem Lett, 2011).
Calls of active or inactive are those of the source. The calls are words filed in the database; no cut-off is given here.

How the values were obtained:
[1] = biological target: Amyloid-beta precursor protein (Homo sapiens) (UniProt P05067); assay: Binding affinity to beta-amyloid plaque in normal human brain sections at 1.6 uCi after 1 hr by autoradiography; conditions: tested as the 125I-labelled form
Sequence of Amyloid-beta precursor protein (Homo sapiens) (P05067 whole entry): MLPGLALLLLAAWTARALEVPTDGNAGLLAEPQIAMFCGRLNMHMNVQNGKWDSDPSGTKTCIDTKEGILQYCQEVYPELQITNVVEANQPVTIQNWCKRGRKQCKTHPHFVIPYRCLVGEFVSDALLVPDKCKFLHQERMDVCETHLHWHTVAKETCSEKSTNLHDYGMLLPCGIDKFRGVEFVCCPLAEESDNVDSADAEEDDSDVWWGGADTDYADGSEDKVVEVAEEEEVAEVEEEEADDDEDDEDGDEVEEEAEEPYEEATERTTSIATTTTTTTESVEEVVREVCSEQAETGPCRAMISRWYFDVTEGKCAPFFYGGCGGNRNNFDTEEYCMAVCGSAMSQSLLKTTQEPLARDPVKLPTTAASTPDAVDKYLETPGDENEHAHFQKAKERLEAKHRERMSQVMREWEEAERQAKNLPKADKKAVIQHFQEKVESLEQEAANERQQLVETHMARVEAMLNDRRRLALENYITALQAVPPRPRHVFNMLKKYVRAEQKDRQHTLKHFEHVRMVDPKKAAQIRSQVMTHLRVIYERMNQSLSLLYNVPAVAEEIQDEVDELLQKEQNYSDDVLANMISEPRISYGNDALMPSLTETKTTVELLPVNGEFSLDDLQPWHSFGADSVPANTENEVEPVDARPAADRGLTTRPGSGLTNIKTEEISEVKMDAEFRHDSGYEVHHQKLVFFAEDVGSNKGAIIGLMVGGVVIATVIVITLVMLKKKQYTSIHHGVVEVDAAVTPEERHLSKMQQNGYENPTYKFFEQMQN

Mus musculus [2] = species on record: Mus musculus; assay: Binding affinity to amyloid beta (1 to 42) in wild type mouse brain sections by neuropathological staining method; assay type: tissue-based
[3] = biological target: Amyloid-beta precursor protein (Homo sapiens) (UniProt P05067); assay: Binding affinity to beta-amyloid plaque in brain of patient with Alzheimers disease at 1.6 uCi after 1 hr by autoradiography; assay type: tissue-based; conditions: tested as the 125I-labelled form
[4] = Displacement of [125I]IMPY from amyloid beta (1 to 42) after 3 hrs by gamma counting
Mus musculus [5] = species on record: Mus musculus; assay: Binding affinity to amyloid beta (1 to 42) in Tg2576 mouse brain sections by neuropathological staining method; assay type: tissue-based
Heart [6] = assay: Biodistribution in ddY mouse heart assessed per gram of tissue at 0.2 to 0.4 uCi, iv after 2 mins; assay type: ADME, organism-based; conditions: in vivo
Pancreas [7] = assay: Biodistribution in ddY mouse pancreas assessed per gram of tissue at 0.2 to 0.4 uCi, iv after 2 mins; assay type: ADME, organism-based; conditions: in vivo
Liver [8] = assay: Biodistribution in ddY mouse liver assessed per gram of tissue at 0.2 to 0.4 uCi, iv after 2 mins; assay type: ADME, organism-based; conditions: in vivo
Brain [9] = assay: Biodistribution in ddY mouse brain assessed per gram of tissue at 0.2 to 0.4 uCi, iv after 30 mins; assay type: ADME, organism-based; conditions: in vivo, 0.5 h
[10] = Octanol-water partition coefficient, log P of the compound at pH 7.4; assay type: physicochemical
Brain [11] = assay: Biodistribution in ddY mouse brain assessed per gram of tissue at 0.2 to 0.4 uCi, iv after 10 mins; assay type: ADME, organism-based; conditions: in vivo
Spleen [12] = assay: Biodistribution in ddY mouse spleen assessed per gram of tissue at 0.2 to 0.4 uCi, iv after 10 mins; assay type: ADME, organism-based; conditions: in vivo
Intestine [13] = assay: Biodistribution in ddY mouse intestine assessed per gram of tissue at 0.2 to 0.4 uCi, iv after 60 mins; assay type: ADME, organism-based; conditions: in vivo, 1 h
Heart [14] = assay: Biodistribution in ddY mouse heart assessed per gram of tissue at 0.2 to 0.4 uCi, iv after 30 mins; assay type: ADME, organism-based; conditions: in vivo, 0.5 h
Spleen [15] = assay: Biodistribution in ddY mouse spleen assessed per gram of tissue at 0.2 to 0.4 uCi, iv after 2 mins; assay type: ADME, organism-based; conditions: in vivo
Kidney [16] = assay: Biodistribution in ddY mouse kidney assessed per gram of tissue at 0.2 to 0.4 uCi, iv after 30 mins; assay type: ADME, organism-based; conditions: in vivo, 0.5 h
Intestine [17] = assay: Biodistribution in ddY mouse intestine assessed per gram of tissue at 0.2 to 0.4 uCi, iv after 2 mins; assay type: ADME, organism-based; conditions: in vivo
Heart [18] = assay: Biodistribution in ddY mouse heart assessed per gram of tissue at 0.2 to 0.4 uCi, iv after 10 mins; assay type: ADME, organism-based; conditions: in vivo
Liver [19] = assay: Biodistribution in ddY mouse liver assessed per gram of tissue at 0.2 to 0.4 uCi, iv after 30 mins; assay type: ADME, organism-based; conditions: in vivo, 0.5 h
Stomach [20] = assay: Biodistribution in ddY mouse stomach assessed per gram of tissue at 0.2 to 0.4 uCi, iv after 30 mins; assay type: ADME, organism-based; conditions: in vivo, 0.5 h
Kidney [21] = assay: Biodistribution in ddY mouse kidney assessed per gram of tissue at 0.2 to 0.4 uCi, iv after 60 mins; assay type: ADME, organism-based; conditions: in vivo, 1 h
Pancreas [22] = assay: Biodistribution in ddY mouse pancreas assessed per gram of tissue at 0.2 to 0.4 uCi, iv after 10 mins; assay type: ADME, organism-based; conditions: in vivo
Blood [23] = assay: Biodistribution in ddY mouse blood assessed per gram of tissue at 0.2 to 0.4 uCi, iv after 60 mins; assay type: ADME, organism-based; conditions: in vivo, 1 h
Stomach [24] = assay: Biodistribution in ddY mouse stomach assessed per gram of tissue at 0.2 to 0.4 uCi, iv after 60 mins; assay type: ADME, organism-based; conditions: in vivo, 1 h
Liver [25] = assay: Biodistribution in ddY mouse liver assessed per gram of tissue at 0.2 to 0.4 uCi, iv after 60 mins; assay type: ADME, organism-based; conditions: in vivo, 1 h
Kidney [26] = assay: Biodistribution in ddY mouse kidney assessed per gram of tissue at 0.2 to 0.4 uCi, iv after 2 mins; assay type: ADME, organism-based; conditions: in vivo
Intestine [27] = assay: Biodistribution in ddY mouse intestine assessed per gram of tissue at 0.2 to 0.4 uCi, iv after 30 mins; assay type: ADME, organism-based; conditions: in vivo, 0.5 h
Stomach [28] = assay: Biodistribution in ddY mouse stomach assessed per gram of tissue at 0.2 to 0.4 uCi, iv after 10 mins; assay type: ADME, organism-based; conditions: in vivo
Blood [29] = assay: Biodistribution in ddY mouse blood assessed per gram of tissue at 0.2 to 0.4 uCi, iv after 30 mins; assay type: ADME, organism-based; conditions: in vivo, 0.5 h
Intestine [30] = assay: Biodistribution in ddY mouse intestine assessed per gram of tissue at 0.2 to 0.4 uCi, iv after 10 mins; assay type: ADME, organism-based; conditions: in vivo
Spleen [31] = assay: Biodistribution in ddY mouse spleen assessed per gram of tissue at 0.2 to 0.4 uCi, iv after 60 mins; assay type: ADME, organism-based; conditions: in vivo, 1 h
Brain [32] = assay: Drug elimination from ddY mouse brain assessed per gram of tissue after 60 mins; assay type: ADME, organism-based; conditions: in vivo, 1 h
Liver [33] = assay: Biodistribution in ddY mouse liver assessed per gram of tissue at 0.2 to 0.4 uCi, iv after 10 mins; assay type: ADME, organism-based; conditions: in vivo
Brain [34] = assay: Biodistribution in ddY mouse brain assessed per gram of tissue at 0.2 to 0.4 uCi, iv after 2 mins; assay type: ADME, organism-based; conditions: in vivo
Spleen [35] = assay: Biodistribution in ddY mouse spleen assessed per gram of tissue at 0.2 to 0.4 uCi, iv after 30 mins; assay type: ADME, organism-based; conditions: in vivo, 0.5 h
Stomach [36] = assay: Biodistribution in ddY mouse stomach assessed per gram of tissue at 0.2 to 0.4 uCi, iv after 2 mins; assay type: ADME, organism-based; conditions: in vivo
Blood [37] = assay: Biodistribution in ddY mouse blood assessed per gram of tissue at 0.2 to 0.4 uCi, iv after 10 mins; assay type: ADME, organism-based; conditions: in vivo
Kidney [38] = assay: Biodistribution in ddY mouse kidney assessed per gram of tissue at 0.2 to 0.4 uCi, iv after 10 mins; assay type: ADME, organism-based; conditions: in vivo
Pancreas [39] = assay: Biodistribution in ddY mouse pancreas assessed per gram of tissue at 0.2 to 0.4 uCi, iv after 30 mins; assay type: ADME, organism-based; conditions: in vivo, 0.5 h
Pancreas [40] = assay: Biodistribution in ddY mouse pancreas assessed per gram of tissue at 0.2 to 0.4 uCi, iv after 60 mins; assay type: ADME, organism-based; conditions: in vivo, 1 h
Blood [41] = assay: Biodistribution in ddY mouse blood assessed per gram of tissue at 0.2 to 0.4 uCi, iv after 2 mins; assay type: ADME, organism-based; conditions: in vivo
Heart [42] = assay: Biodistribution in ddY mouse heart assessed per gram of tissue at 0.2 to 0.4 uCi, iv after 60 mins; assay type: ADME, organism-based; conditions: in vivo, 1 h
Brain [43] = assay: Biodistribution in ddY mouse brain assessed per gram of tissue at 0.2 to 0.4 uCi, iv after 60 mins; assay type: ADME, organism-based; conditions: in vivo, 1 h
Bone [44] = assay: Biodistribution in ddY mouse bone assessed per gram of tissue at 0.2 to 0.4 uCi, iv after 2 mins; assay type: ADME, organism-based, Bone element; conditions: in vivo
Bone [45] = assay: Biodistribution in ddY mouse bone assessed per gram of tissue at 0.2 to 0.4 uCi, iv after 60 mins; assay type: ADME, organism-based, Bone element; conditions: in vivo, 1 h
Bone [46] = assay: Biodistribution in ddY mouse bone assessed per gram of tissue at 0.2 to 0.4 uCi, iv after 10 mins; assay type: ADME, organism-based, Bone element; conditions: in vivo
Bone [47] = assay: Biodistribution in ddY mouse bone assessed per gram of tissue at 0.2 to 0.4 uCi, iv after 30 mins; assay type: ADME, organism-based, Bone element; conditions: in vivo, 0.5 h

SMILES: O=C1/C(=C/c2ccc(OCCF)cc2)Oc2ccc(I)cc21
- Activity [1]: inactive
- Activity (Mus musculus [2]): inactive
- Activity [3]: Active
- Activity [4]: Dose-dependent effect
- Ki [4]: 6.81 nM
- Activity (Mus musculus [5]): Active

SMILES: O=C1/C(=C/c2ccc(OCCF)cc2)Oc2ccc([125I])cc21
- Drug uptake (Heart [6]): 4.9 %ID
- Drug uptake (Pancreas [7]): 3.44 %ID
- Drug uptake (Liver [8]): 17.06 %ID
- Drug uptake (Brain [9]): 0.19 %ID
- logD [10]: 2.45
- Drug uptake (Brain [11]): 0.84 %ID
- Drug uptake (Spleen [12]): 4.33 %ID
- Drug uptake (Intestine [13]): 15.74 %ID
- Drug uptake (Heart [14]): 1.54 %ID
- Drug uptake (Spleen [15]): 3.74 %ID
- Drug uptake (Kidney [16]): 5.49 %ID
- Drug uptake (Intestine [17]): 2.02 %ID
- Drug uptake (Heart [18]): 1.95 %ID
- Drug uptake (Liver [19]): 12.44 %ID
- Drug uptake (Stomach [20]): 0.79 %ID
- Drug uptake (Kidney [21]): 5.22 %ID
- Drug uptake (Pancreas [22]): 1.33 %ID
- Drug uptake (Blood [23]): 1.29 %ID
- Drug uptake (Stomach [24]): 0.89 %ID
- Drug uptake (Liver [25]): 10.96 %ID
- Drug uptake (Kidney [26]): 6.96 %ID
- Drug uptake (Intestine [27]): 12.35 %ID
- Drug uptake (Stomach [28]): 1.46 %ID
- Drug uptake (Blood [29]): 1.94 %ID
- Drug uptake (Intestine [30]): 6.53 %ID
- Drug uptake (Spleen [31]): 2.37 %ID
- CL (Brain [32]): 0.19 %ID
- Drug uptake (Liver [33]): 16.5 %ID
- Drug uptake (Brain [34]): 2.34 %ID
- Drug uptake (Spleen [35]): 3.61 %ID
- Drug uptake (Stomach [36]): 0.61 %ID
- Drug uptake (Blood [37]): 3.13 %ID
- Drug uptake (Kidney [38]): 7.53 %ID
- Drug uptake (Pancreas [39]): 0.8 %ID
- Drug uptake (Pancreas [40]): 1.35 %ID
- Drug uptake (Blood [41]): 6.7 %ID
- Drug uptake (Heart [42]): 1.19 %ID
- Drug uptake (Brain [43]): 0.19 %ID

SMILES: O=C1/C(=C/c2ccc(OCC[18F])cc2)Oc2ccc(I)cc21
- Drug uptake (Brain [9]): 1.77 %ID
- Drug uptake (Brain [11]): 2.37 %ID
- Drug uptake (Bone [44]): 2.03 %ID
- Drug uptake (Bone [45]): 3.42 %ID
- Drug uptake (Blood [23]): 2.61 %ID
- Drug uptake (Blood [29]): 2.68 %ID
- CL (Brain [32]): 1.75 %ID
- Drug uptake (Brain [34]): 3.66 %ID
- Drug uptake (Blood [37]): 2.84 %ID
- Drug uptake (Blood [41]): 5.72 %ID
- Drug uptake (Bone [46]): 2.13 %ID
- Drug uptake (Brain [43]): 1.75 %ID
- Drug uptake (Bone [47]): 3.45 %ID
